Drawing on patent US12558428B2, “Heterobifunctional compounds and their use in treating disease” (Halda Therapeutics OpCo, Inc., priority 2024, dated 2026), this text covers GI50 for 20 molecules.

Like-named read-outs stand apart in the source and are kept apart here.

What all share (format): cell-based
Assay [1] deals with MCF7 cells (ATCC #HTB-22). The assay is described as follows: Cellular growth inhibition assay, MCF7 cells purchased from ATCC. The settings on record: Table 8-A, MCF7 cells purchased from ATCC, six days, CellTiter-Glo, read-out: GI50. Summed up:
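MCF7 cells in RPMI 1640 with 10% FBS and 0.2 U/ml insulin, seeded at 1,500 cells/well (ATCC) or 225 cells/well (ECACC). Compounds added 24 h later, then 6 days at 37° C. Viability by CellTiter-Glo 2.0 luminescence. GI50 from four-parameter fit.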
Background: Cellular ATP, detected with luciferase, serves as a proxy for viable cell number.

In assay [2] the test system is T-Rex 293 cells having increased expression of estrogen receptor alpha protein. In words: Cellular growth inhibition assay, T-Rex 293 cells, (+) doxycycline. The settings on record: 72 hours. Summed up:
(§1)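 ERα overexpression was switched on by 3 ng/mL doxycycline in a stably transfected T-Rex 293 clone, while uninduced cells served as the comparison line. Proliferation over 72 h of compound treatment was assessed by ATP luminescence, and GI50 values came from four-parameter curves.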

Assay [3] deals with T-Rex 293 cells lacking increased expression of estrogen receptor alpha protein. In words: Cellular growth inhibition assay, T-Rex 293 cells, (−) doxycycline. The following applies: 72 hours. In outline:
as §1

The mark [4] stands for this setting: T-REx-293, 72 h, T-Rex 293 cells with doxycycline-induced ERα expression, CellTiter-Glo 2.0, read-out: (+) Dox TRex ERa (GI50).
The mark [5] stands for this setting: T-REx-293, 72 h, T-Rex 293 cells without doxycycline, CellTiter-Glo 2.0, read-out: (−) Dox TRex ERa (GI50).
[6] abbreviates: T-REx-293, 72 h, Table 7-A, T-Rex 293 cells with doxycycline (increased ERα expression), CellTiter-Glo, read-out: (+) Dox GI50.
Where [7] appears, read: T-REx-293, 72 h, Table 7-A, T-Rex 293 cells without doxycycline (lacking increased ERα expression), CellTiter-Glo, read-out: (−) Dox GI50.

As to `CCN(Cc1ccc(CCN2CC[C@@H](OCCOCCOc3ccc(C4=N[C@@H](C)c5nnc(C)n5-c5sc(C)c(C)c54)cc3)C2)cc1)c1cc(OC)ccc1C1CCc2cc(O)ccc2C1` (stereo partly drawn) [I-34b, (S)-6-(2-(ethyl(4-(2-((R)-3-(2-(2-(4-((S)-2,3,6,9-tetramethyl-6H-thieno[3,2-f][1,2,4]triazolo[4,3-a][1,4]diazepin-4-yl)phenoxy)ethoxy)ethoxy)pyrrolidin-1-yl)ethyl)benzyl)amino)-4-methoxyphenyl)-5,6,7,8-tetrahydronaphthalen-2-ol], the GI50 in assay [1] was 50 to 500 nM; in assay [2] (Table 7-A, T-Rex 293 cells with doxycycline (increased ERα expression), CellTiter-Glo, read-out: (+) Dox GI50), less than 50 nM; in assay [3] (Table 7-A, T-Rex 293 cells without doxycycline (lacking increased ERα expression), CellTiter-Glo, read-out: (−) Dox GI50), 500 to 2500 nM.

As to `Cn1cc(-c2cc(C(C)(C)O)ccc2Oc2ccc(N3CCC4(CCN(CCOc5ccc(C(=O)c6c(-c7ccc(O)cc7)sc7cc(O)ccc67)cc5)CC4)C3)cc2)c2cc[nH]c2c1=O` [I-35, 4-(2-(4-(8-(2-(4-(6-hydroxy-2-(4-hydroxyphenyl)benzo[b]thiophene-3-carbonyl)phenoxy)ethyl)-2,8-diazaspiro[4.5]decan-2-yl)phenoxy)-5-(2-hydroxypropan-2-yl)phenyl)-6-methyl-1,6-dihydro-7H-pyrrolo[2,3-c]pyridin-7-one], the GI50 is less than 50 nM in assay [1] (Homo sapiens, MCF7, 144 h); less than 50 nM in assay [2] (setting [4]); less than 50 nM in assay [3] (setting [5]).

Consider `Cc1sc2c(c1C)C(c1ccc(OCCOCCCN3CC[C@H](Oc4ccc(C5=C(c6ccc(Cl)cc6Cl)CCCc6cc(O)ccc65)cc4)C3)cc1)=N[C@@H](C)c1nnc(C)n1-2` [I-36, 8-(2,4-dichlorophenyl)-9-(4-(((S)-1-(3-(2-(4-((S)-2,3,6,9-tetramethyl-6H-thieno[3,2-f][1,2,4]triazolo[4,3-a][1,4]diazepin-4-yl)phenoxy)ethoxy)propyl)pyrrolidin-3-yl)oxy)phenyl)-6,7-dihydro-5H-benzo[7]annulen-3-ol], for which the GI50 in assay [1] (Homo sapiens, MCF7, 144 h) was 500 to 2500 nM; in assay [2] (setting [4]), 500 to 2500 nM; in assay [3] (setting [5]), 500 to 2500 nM.

In the case of `Cc1sc2c(c1C)C(c1ccc(CC3CC4(CCCN(c5ccc([C@@H]6c7ccc(O)cc7CC[C@@H]6c6ccccc6)cc5)C4)C3)cc1)=N[C@@H](C)c1nnc(C)n1-2` (stereo partly drawn) [I-44], the GI50 fell in the range of 500 to 2500 nM in assay [1] (Homo sapiens, MCF7, 144 h); 50 to 500 nM in assay [2] (setting [6]); 500 to 2500 nM in assay [3] (setting [7]).

Consider `Cc1sc2c(c1C)C(c1ccc(C#CC3CC4(CCN(c5ccc([C@@H]6c7ccc(O)cc7CC[C@@H]6c6ccccc6)cc5)CC4)C3)cc1)=N[C@@H](Cc1ncco1)c1nnc(C)n1-2` [I-46], for which the 50% growth inhibitory concentration (GI50) was 50 to 500 nM in assay [1] (Homo sapiens, MCF7, 144 h); less than 50 nM in assay [2] (setting [6]); more than 2500 nM in assay [3] (setting [7]).

On to `Cc1sc2c(c1C)C(c1ccc(C#CC3CC4(CCN(c5ccc([C@@H]6c7ccc(O)cc7CC[C@@H]6c6ccccc6)cc5)CC4)C3)cc1)=N[C@@H](C)c1nnc(C)n1-2` [I-47], for which the GI50 in assay [1] (Homo sapiens, MCF7, 144 h) was 500 to 2500 nM; in assay [2] (setting [6]) it was 50 to 500 nM; in assay [3] (setting [7]), more than 2500 nM.

With `Cc1sc2c(c1C)C(c1ccc(OCCOCCCN3CC(Nc4ccc([C@@H]5c6ccc7n[nH]cc7c6C[C@@H](C)N5CC(F)(F)F)nc4)C3)cc1)=N[C@@H](C)c1nnc(C)n1-2` [I-57], the GI50 is less than 50 nM in assay [1] (Homo sapiens, MCF7, 144 h); less than 50 nM in assay [2] (setting [6]); 500 to 2500 nM in assay [3] (setting [7]).

For `CC1=C(c2c(F)cc(F)cc2F)[C@H](c2ccc(OCCN3CC(COCCOc4ccc(C5=N[C@@H](C)c6nnc(C)n6-c6sc(C)c(C)c65)cc4)C3)cc2)Oc2ccc(O)cc21` [I-59], the GI50 in assay [1] (Homo sapiens, MCF7, 144 h) was 50 to 500 nM; in assay [2] (setting [6]) it was 50 to 500 nM; in assay [3] (setting [7]), 500 to 2500 nM.

For `CC1=C(c2ccc(O)cc2)[C@H](c2ccc(OCCN3CC[C@@H](OCCOCCOc4ccc(C5=N[C@@H](C)c6nnc(C)n6-c6sc(C)c(C)c65)cc4)C3)cc2)Oc2cc(O)ccc21` [I-60], the GI50 in assay [1] (Homo sapiens, MCF7, 144 h) fell in the range of 50 to 500 nM; in assay [2] (setting [6]), 50 to 500 nM; in assay [3] (setting [7]) it was 500 to 2500 nM.

Take `Cc1sc2c(c1C)C(c1ccc(CC3CC4(CCN(c5ccc([C@@H]6c7ccc(O)cc7CC[C@@H]6c6ccccc6)cc5)CC4)C3)cc1)=N[C@@H](Cc1ncco1)c1nnc(C)n1-2` [I-62, (5R,6S)-6-phenyl-5-(4-(2-(4-((S)-2,3,9-trimethyl-6-(oxazol-2-ylmethyl)-6H-thieno[3,2-f][1,2,4]triazolo[4,3-a][1,4]diazepin-4-yl)benzyl)-7-azaspiro[3.5]nonan-7-yl)phenyl)-5,6,7,8-tetrahydronaphthalen-2-ol]: the concentration for 50% growth inhibition (GI50) in assay [1] (Homo sapiens, MCF7, 144 h) is more than 2500 nM; in assay [2] (setting [6]) it was 50 to 500 nM; in assay [3] (setting [7]), 500 to 2500 nM.

As for `Cc1sc2c(c1C)C(c1ccc(N3CCN(CC4CCN(c5ccc([C@@H]6c7ccc(O)cc7CC[C@@H]6c6ccccc6)cc5)CC4)CC3)cc1)=N[C@H](Cc1ncco1)c1nnc(C)n1-2` [III-1, (5R,6S)-6-phenyl-5-(4-(4-((4-(4-((R)-2,3,9-trimethyl-6-(oxazol-2-ylmethyl)-6H-thieno[3,2-f][1,2,4]triazolo[4,3-a][1,4]diazepin-4-yl)phenyl)piperazin-1-yl)methyl)piperidin-1-yl)phenyl)-5,6,7,8-tetrahydronaphthalen-2-ol], the GI50 was 500 to 2500 nM in assay [1] (Homo sapiens, MCF7, 144 h); more than 2500 nM in assay [2] (setting [6]); more than 2500 nM in assay [3] (setting [7]).

In the case of `Cc1sc2c(c1C)C(c1ccc(N3CCN(CC4CCN(c5ccc([C@H]6c7ccc(O)cc7CC[C@H]6c6ccccc6)cc5)CC4)CC3)cc1)=N[C@H](Cc1ncco1)c1nnc(C)n1-2` [III-2, (5S,6R)-6-phenyl-5-(4-(4-((4-(4-((R)-2,3,9-trimethyl-6-(oxazol-2-ylmethyl)-6H-thieno[3,2-f][1,2,4]triazolo[4,3-a][1,4]diazepin-4-yl)phenyl)piperazin-1-yl)methyl)piperidin-1-yl)phenyl)-5,6,7,8-tetrahydronaphthalen-2-ol], the GI50 in assay [1] (Homo sapiens, MCF7, 144 h) is 500 to 2500 nM; in assay [2] (setting [6]) it was more than 2500 nM; in assay [3] (setting [7]), more than 2500 nM.

In the case of `Cc1sc2c(c1C)C(c1ccc(N3CCN(CC4CCN(c5ccc([C@H]6c7ccc(O)cc7CC[C@H]6c6ccccc6)cc5)CC4)CC3)cc1)=N[C@@H](Cc1ncco1)c1nnc(C)n1-2` [III-3, (5S,6R)-6-phenyl-5-(4-(4-((4-(4-((S)-2,3,9-trimethyl-6-(oxazol-2-ylmethyl)-6H-thieno[3,2-f][1,2,4]triazolo[4,3-a][1,4]diazepin-4-yl)phenyl)piperazin-1-yl)methyl)piperidin-1-yl)phenyl)-5,6,7,8-tetrahydronaphthalen-2-ol], the GI50 in assay [1] (Homo sapiens, MCF7, 144 h) lay in the range of 50 to 500 nM; in assay [2] (setting [6]), 50 to 500 nM; in assay [3] (setting [7]) it was 500 to 2500 nM.

With `Cc1sc2c(c1C)C(c1ccc(CC3CC4(CCN(c5ccc([C@@H]6c7ccc(O)cc7CC[C@@H]6c6ccccc6)cc5)CC4)C3)cc1)=N[C@H](Cc1ncco1)c1nnc(C)n1-2` [III-4, (5R,6S)-6-phenyl-5-(4-(2-(4-((R)-2,3,9-trimethyl-6-(oxazol-2-ylmethyl)-6H-thieno[3,2-f][1,2,4]triazolo[4,3-a][1,4]diazepin-4-yl)benzyl)-7-azaspiro[3.5]nonan-7-yl)phenyl)-5,6,7,8-tetrahydronaphthalen-2-ol], the GI50 was more than 2500 nM in assay [1] (Homo sapiens, MCF7, 144 h); 500 to 2500 nM in assay [2] (setting [6]); more than 2500 nM in assay [3] (setting [7]).

As for `Cc1sc2c(c1C)C(c1ccc(N3CCC(CN4CCN(c5ccc([C@@H]6c7ccc(O)cc7CC[C@@H]6c6ccccc6)cc5)CC4)CC3)cc1)=N[C@@H](C)c1nnc(C)n1-2` [III-5], the 50% growth inhibitory concentration (GI50) is less than 50 nM in assay [1] (Homo sapiens, MCF7, 144 h); less than 50 nM in assay [2] (setting [6]); 500 to 2500 nM in assay [3] (setting [7]).

For `Cc1sc2c(c1C)C(c1ccc(N3CCC(CN4CCN(c5ccc([C@H]6c7ccc(O)cc7CC[C@H]6c6ccccc6)cc5)CC4)CC3)cc1)=N[C@@H](C)c1nnc(C)n1-2` [III-6], the GI50 lay in the range of 50 to 500 nM in assay [1] (Homo sapiens, MCF7, 144 h); 50 to 500 nM in assay [2] (setting [6]); 500 to 2500 nM in assay [3] (setting [7]).

As to `Cc1sc2c(c1C)C(c1ccc(N3CCC(N4CC(Oc5ccc([C@@H]6c7ccc(O)cc7CC[C@@H]6c6ccccc6)cc5)C4)CC3)cc1)=N[C@@H](C)c1nnc(C)n1-2` [III-7], the 50% growth inhibitory concentration (GI50) in assay [1] (Homo sapiens, MCF7, 144 h) is 50 to 500 nM; in assay [2] (setting [6]), 50 to 500 nM; in assay [3] (setting [7]), 500 to 2500 nM.

For `Cc1sc2c(c1C)C(c1ccc(N3CCC(N4CC(Oc5ccc([C@H]6c7ccc(O)cc7CC[C@H]6c6ccccc6)cc5)C4)CC3)cc1)=N[C@@H](C)c1nnc(C)n1-2` [III-8], the GI50 was in the range of 50 to 500 nM in assay [1] (Homo sapiens, MCF7, 144 h); 500 to 2500 nM in assay [2] (setting [6]); 500 to 2500 nM in assay [3] (setting [7]).

Turning to `Cc1sc2c(c1C)C(c1ccc(N3CCC(CN4CC(COc5ccc([C@H]6c7ccc(O)cc7CC[C@H]6c6ccccc6)cc5)C4)CC3)cc1)=N[C@@H](C)c1nnc(C)n1-2` [III-9], the concentration for 50% growth inhibition (GI50) in assay [1] (Homo sapiens, MCF7, 144 h) was 50 to 500 nM; in assay [2] (setting [6]), less than 50 nM; in assay [3] (setting [7]), 50 to 500 nM.

On to `Cc1sc2c(c1C)C(c1ccc(N3CCC(CN4CC(COc5ccc([C@@H]6c7ccc(O)cc7CC[C@@H]6c6ccccc6)cc5)C4)CC3)cc1)=N[C@@H](C)c1nnc(C)n1-2` [III-10], for which the concentration for 50% growth inhibition (GI50) was 50 to 500 nM in assay [1] (Homo sapiens, MCF7, 144 h); less than 50 nM in assay [2] (setting [6]); 50 to 500 nM in assay [3] (setting [7]).

As a reminder, the GI50 is the concentration giving 50% growth inhibition.
